18 compounds from ChEMBL document CHEMBL1140475, “Structure-activity relationship (SAR) investigations of substituted imidazole analogs as TRPV1 antagonists” (Bioorg Med Chem Lett, 2007) can be followed below.

Series [1] has as its target T1, Transient receptor potential cation channel subfamily V member 1 (Rattus norvegicus, UniProt O35433). The experiment in a line: Antagonist activity at rat TRPV1 expressed in CHO cells assessed blocking of acid-induced calcium influx at pH 5. The format is functional, cell-based.
Series [2] is described as follows: AUC (0 to infinity) in Sprague-Dawley rat at 1 mg/kg, iv. The format is ADME, organism-based. Particulars: plasma. Details: time infinity, dose 1 mg/kg, route intravenous.
Series [3] in a line: Clearance in Sprague-Dawley rat at 1 mg/kg, iv. The format is ADME, organism-based. Further details: dose 1 mg/kg, route intravenous. Particulars: in vivo.
Series [4] is described as follows: Half life in Sprague-Dawley rat at 1 mg/kg, iv. Particulars: in vivo. Further details: dose 1 mg/kg, route intravenous. It is filed as ADME, organism-based.
Series [5] is described as follows: Volume of distribution at steady state in Sprague-Dawley rat at 1 mg/kg, iv. Particulars: in vivo, read-out: Vdss. The format is ADME, organism-based. Further details: dose 1 mg/kg, route intravenous.
A short description of series [6]: Cmax in Sprague-Dawley rat at 5 mg/kg, po. It is filed as ADME, organism-based. Further details: dose 5 mg/kg, route oral. Particulars: in vivo.
The nature of series [7]: Tmax in Sprague-Dawley rat at 5 mg/kg, po. The format is ADME, organism-based. Further details: dose 5 mg/kg, route oral. Particulars: in vivo.
A short description of series [8]: AUC (0 to infinity) in Sprague-Dawley rat at 5 mg/kg, po. It is filed as ADME, organism-based. Further details: time infinity, dose 5 mg/kg, route oral. Particulars: plasma.
Series [9] is described as follows: Bioavailability in Sprague-Dawley rat at 5 mg/kg. The format is ADME, organism-based. Particulars: in vivo.
Series [10] deals with T1, Transient receptor potential cation channel subfamily V member 1. The experiment in a line: Antagonist activity at rat TRPV1 expressed in CHO cells assessed blocking of capsaicin-induced calcium influx. The format is functional, cell-based.

Structures are written as SMILES.

T1 sequence (O35433 whole entry): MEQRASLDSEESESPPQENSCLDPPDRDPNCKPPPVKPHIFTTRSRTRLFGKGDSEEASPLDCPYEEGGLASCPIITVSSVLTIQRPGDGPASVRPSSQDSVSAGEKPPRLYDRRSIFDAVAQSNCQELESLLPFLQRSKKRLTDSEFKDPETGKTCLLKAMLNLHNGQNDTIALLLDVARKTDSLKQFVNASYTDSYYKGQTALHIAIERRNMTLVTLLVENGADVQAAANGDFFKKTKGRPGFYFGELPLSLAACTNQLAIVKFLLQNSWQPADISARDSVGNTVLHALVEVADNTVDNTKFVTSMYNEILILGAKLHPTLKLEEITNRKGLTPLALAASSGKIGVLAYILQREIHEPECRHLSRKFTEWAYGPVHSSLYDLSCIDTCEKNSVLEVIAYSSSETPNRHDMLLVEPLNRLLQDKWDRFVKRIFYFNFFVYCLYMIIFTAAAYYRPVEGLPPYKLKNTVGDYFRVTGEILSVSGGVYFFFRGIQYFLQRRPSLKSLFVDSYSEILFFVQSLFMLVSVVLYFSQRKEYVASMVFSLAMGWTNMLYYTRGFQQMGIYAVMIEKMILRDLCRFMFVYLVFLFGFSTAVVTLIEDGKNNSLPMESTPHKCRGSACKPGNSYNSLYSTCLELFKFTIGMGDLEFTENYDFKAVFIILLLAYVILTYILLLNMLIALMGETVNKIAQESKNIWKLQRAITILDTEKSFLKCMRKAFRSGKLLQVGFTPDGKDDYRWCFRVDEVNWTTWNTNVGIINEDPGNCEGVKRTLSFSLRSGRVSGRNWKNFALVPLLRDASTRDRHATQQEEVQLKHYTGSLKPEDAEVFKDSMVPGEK

Regarding `FC(F)(F)c1ccc(-c2[nH]c(N3CCN(c4ncccc4C(F)(F)F)CC3)nc2-c2ccccc2)cc1`, the concentration for half-maximal inhibition (IC50) (as a rule, the concentration that gives 50% inhibition) came out at 216 nM in series [1] and 107 nM in series [10]. For the same compound, the AUC(0-inf) (as a rule, the area under the concentration-time curve extrapolated to infinity) turned out to be 105 ng·h/mL in series [2] and 30 ng·h/mL in series [8]. The clearance (usually the volume of plasma or blood freed of the substance per unit of time) in series [3] is 167 mL/min/kg. Also, the half-life (usually the time in which the quantity being followed falls by half) in series [4] was 138 min. The Vd in [5] came out at 5 L/kg. In addition, the maximum concentration (Cmax) (as a rule, the maximum level reached in the sampled fluid or tissue) in [6] is 13 ng/mL. Further, the Tmax (in general, the time at which the peak concentration occurs) in series [7] is 1.3 h. In addition, in [9], the bioavailability – broadly, the share of a dose that reaches the circulation, judged against a reference dose that is usually intravenous – was 6%.

Regarding `Cc1nc(N2CCN(c3ncccc3C(F)(F)F)CC2)[nH]c1-c1ccc(C(F)(F)F)cc1`, the results for the IC50 in series [1] and in series [10] were above 4000 nM and 628 nM, respectively.

Take `COC(=O)c1nc(N2CCN(c3ncccc3C(F)(F)F)CC2)[nH]c1-c1ccc(C(F)(F)F)cc1`: the figures for the IC50 in series [1] and in series [10] were 180 nM and 1170 nM, respectively.

With `O=C(NCC1CCCCN1)c1nc(N2CCN(c3ncccc3C(F)(F)F)CC2)[nH]c1-c1ccc(C(F)(F)F)cc1` (stereo not given), the results for the half-maximal inhibitory concentration (IC50) in [1] and in [10] were above 4000 nM and 2950 nM, respectively.

Regarding `FC(F)(F)c1cccc(-c2[nH]c(N3CCN(c4ncccc4C(F)(F)F)CC3)nc2-c2ccccc2)c1`, the half-inhibitory concentration (IC50) in series [1] was determined as 165 nM; in series [10] it was 1240 nM.

`FC(F)(F)c1ccc(-c2nc(N3CCN(c4ncccc4C(F)(F)F)CC3)[nH]c2-c2ccc(C(F)(F)F)cc2)cc1`: the IC50 was 146 nM in series [1] and 573 nM in [10].

Consider `Fc1cc(-c2nc(N3CCN(c4ncccc4C(F)(F)F)CC3)[nH]c2-c2cc(F)c(F)c(F)c2)cc(F)c1F`, for which the results for the IC50 in series [1] and in series [10] were 32 nM and 44 nM, respectively.

As for `OCc1cnc(N2CCN(c3nc(-c4ccccc4)c(-c4ccc(C(F)(F)F)cc4)[nH]3)CC2)c(Cl)c1`, the concentration for half-maximal inhibition (IC50) in series [1] came to 160 nM; in [10], 90 nM.

On to `C[C@@H]1CN(c2ncc(CO)cc2Cl)CCN1c1nc(-c2ccccc2)c(-c2ccc(C(F)(F)F)cc2)[nH]1`, for which the IC50 in [1] is 29 nM; in series [10], 26 nM.

With `C[C@@H]1CN(c2ncc(CO)cc2Cl)CCN1c1nc(-c2cc(F)c(F)c(F)c2)c(-c2ccc(C(F)(F)F)cc2)[nH]1`, the half-maximal inhibitory concentration (IC50) was 4 nM in [1] and 1 nM in [10]. In addition, the results for the AUC(0-inf) in [2] and in [8] were 1230 ng·h/mL and 2460 ng·h/mL, respectively. The compound further had a clearance in series [3] of 13.3 mL/min/kg. Also, the half-life in series [4] was 378 min. Besides, in series [5], the Vd is 5.4 L/kg. The same compound registered a Cmax in series [6] of 347 ng/mL. The Tmax in series [7] turned out to be 4.7 h. Moreover, in series [9], the bioavailability was determined as 40%.

As for `CC(C)N1CCN(C(=O)c2nc(N3CCN(c4ncccc4C(F)(F)F)CC3)[nH]c2-c2ccc(C(F)(F)F)cc2)CC1`, the IC50 in series [1] was 1000 nM; in series [10] it was 700 nM.

Take `CC(C)CN1CCCCC1CNC(=O)c1nc(N2CCN(c3ncccc3C(F)(F)F)CC2)[nH]c1-c1ccc(C(F)(F)F)cc1` (stereo not given): the figures for the IC50 in [1] and in series [10] were above 4000 nM and 1900 nM, respectively.

In the case of `CCN1CCCC1CNC(=O)c1nc(N2CCN(c3ncccc3C(F)(F)F)CC2)[nH]c1-c1ccc(C(F)(F)F)cc1` (stereo not given), the figures for the IC50 in series [1] and in series [10] were 3300 nM and 4100 nM, respectively.

Turning to `C[C@@H]1CN(c2ncccc2C(F)(F)F)CCN1c1nc(-c2ccccc2)c(-c2ccc(C(F)(F)F)cc2)[nH]1`, the results for the 50% inhibitory concentration (IC50) in series [1] and in series [10] were 341 nM and 117 nM, respectively.

As for `FC(F)(F)c1ccc(-c2c[nH]c(N3CCN(c4ncccc4C(F)(F)F)CC3)n2)cc1`, the IC50 in series [1] is above 4000 nM; in series [10], 861 nM.

On to `FC(F)(F)c1ccc(-c2nc(N3CCN(c4ncccc4C(F)(F)F)CC3)[nH]c2Cl)cc1`, for which the results for the IC50 in [1] and in series [10] were above 4000 nM and 160 nM, respectively.

Consider `Fc1cc(-c2nc(N3CCN(c4ncccc4C(F)(F)F)CC3)[nH]c2-c2ccc(C(F)(F)F)cc2)cc(F)c1F`, for which the results for the concentration for half-maximal inhibition (IC50) in series [1] and in series [10] were 20 nM and 7 nM, respectively. Moreover, the AUC(0-inf) in series [2] amounted to 529 ng·h/mL; in [8], 80 ng·h/mL. In addition, the clearance in series [3] was 31.7 mL/min/kg. For the same compound, the half-life in [4] was 114 min. Besides, the Vd in series [5] was 1.7 L/kg. Also, in series [6], the concentration peaked (Cmax) at 17 ng/mL. Besides, in [7], the time of peak concentration (Tmax) stood at 1 h. Besides, in series [9], the bioavailability was 3%.

As to `Fc1cc(F)cc(-c2nc(N3CCN(c4ncccc4C(F)(F)F)CC3)[nH]c2-c2ccc(C(F)(F)F)cc2)c1`, the IC50 in series [1] came out at 85 nM; in [10] it was 35 nM.
